Each structure is given as a SMILES string.

A short description of this series: Solubility of galactitol (no method). The note with it: galactitol tends to crystallize with xylitol crystals; no solvent or temperature printed. In kind it is physicochemical.

Regarding `OC[C@@H](O)[C@H](O)[C@H](O)[C@@H](O)CO` [galactitol], the solubility result is “very low solubility”.

Values taken from patent publication US4008285A, “Process for making xylitol” (priority 1975, dated 1977).
